Several values for one entry are separate records, joined by “and”; a condition that tells them apart may be missing. Equal entries are not always repeated.
Columns and labels:
[1] = tested on: advanced or unresectable solid tumors; assay: Tumor response (RECIST v1.1/RANO), PFS and OS in phase I study, parts A and C; type: in vivo, human
Protocol: Secondary objectives were the preliminary efficacy of trotabresib in terms of clinical benefit rate (CR + PR + SD of ≥4 months’ duration), ORR (CR + PR), duration of response or SD, PFS, OS, and the PK of trotabresib. In addition, part C assessed the effects of food on the PK and the safety of trotabresib as a secondary objective. The pharmacodynamics of trotabresib were assessed as an exploratory objective.
Response was assessed using Response Evaluation Criteria in Solid Tumors (RECIST) v1.1[54] in patients with solid tumors, International Working Group criteria in patients with DLBCL[55], and Response Assessment in Neuro-Oncology (RANO) criteria[56] in patients with CNS tumors (astrocytoma and glioblastoma). For patients with BCC, the response was assessed using a combination of radiological assessment of target lesions per RECIST v1.1, digital clinical photography assessed per World Health Organization (WHO) criteria, and punch biopsies to confirm CR. PK parameters assessed included Cmax, tmax, AUC, t½, apparent clearance (CL/F), and apparent volume of distribution (Vz/F).
Bayesian logistic regression model based on dose-limiting toxicity was used to provide initial guidance for dose recommendations in the dose-escalation phase. The final decision was reached by considering the totality of safety, PK, and PD data. For binary efficacy endpoints, two-sided 95% Clopper–Pearson exact confidence intervals were provided. For time-to-event endpoints (PFS and OS), the median and 95% CI were estimated using the Kaplan–Meier method.

[2] = Prediction of human PK and exposure by allometric scaling; HED calculation
Source text: Protocol CC- 90010- ST-001 Celgene Corporation
Figure 3: CC- 90010- mediated Tumor Growth Inhibition of GBM3 (Glioblastoma Multiforme Patient-derived Xenograft) with and without Temozolomide […]
BID = twice daily; IP = investigational product (CC-90010); PO = by mouth; QD = once daily; SEM = standard […]
Source: Unpublished data from Celgene Corporation.
1.2.2. Nonclinical Pharmacokinetics and Drug Metabolism
In vitro and in vivo studies have been conducted to characterize the absorption, PK, distribution, metabolism and elimination of CC-90010. Robust and reproducible bioanalytical methods for the quantitation of CC-90010 levels were developed and used in PK and toxicokinetic studies.
Human PK parameters and exposures were predicted using allometric scaling.
Pharmacokinetics and oral bioavailability of CC-90010 were evaluated in Sprague-Dawley rats […]
clearance than females. […]
The metabolism of CC-90010 was evaluated in vitro using hepatocytes from various species (mouse, rat, rabbit, dog, monkey, and human). […]
Based on the doses and exposures at which the principal treatment-related effects occurred in the GLP-compliant, 4-week rat and dog studies, both species are considered of similar sensitivity to the toxicities associated with CC-90010 administration. […] This CC-90010 dose was calculated using the approach described in the ICH S9 Guideline entitled “Nonclinical Evaluation for […]

[3] = set-up: method as in PMID 32240793; details: cited from earlier work
OAT3 = tested on: OAT3; set-up: method as in Investigator's Brochure; details: OAT3, 30 µM, ref Investigator's Brochure; cited from earlier work
OATP1B3 = tested on: OATP1B3; set-up: method as in Investigator's Brochure; details: OATP1B3, 30 µM, ref Investigator's Brochure; cited from earlier work
[4] = part A (N = 69), 02 Dec 2019 cutoff

## Cn1cc(-c2cc(S(C)(=O)=O)ccc2OCC2CC2)c2ccccc2c1=O [trotabresib]
[1]; part A
  patients on treatment ≥24 cycles with sustained SD: five
[1]; part A (N = 69)
  clinical benefit rate (CBR; CR, PR, or SD ≥4 months): 17.4%
  objective response rate (ORR; CR or PR): 2.9%
[1]; [4]
  subjects with SD: 33.3%
  subjects with SD ≥ 4 months: 14.5%
  subjects with confirmed CR: 1.4%
  subjects with confirmed PR: 1.4%
[1]; part A (n = 69)
  Median OS (95% CI): 189 (161–258) days
  Median PFS (95% CI): 57 (52–81) days
  OS range: 15 to 853 days
  PFS range: 11 to 945 days
[1]; part A, 10 December 2018 cutoff
  subjects with stable disease: 27.5%
[1]; part A, one patient with endometrial cancer
  duration of confirmed partial response: 8 cycles
[1]; part A, one patient with grade 2 diffuse astrocytoma
  duration of complete response: 19 cycles
[1]; part A, one patient with salivary gland cancer, ongoing at cycle 53
  total treatment duration: 4.0 years
[1]; part A, one patient with thymic cancer (38 cycles)
  time on treatment: 3.1 years
[1]; part C
  further patients on treatment ≥1 year with sustained SD: seven
[1]; part C (N = 41)
  best response CR: 0%
  best response PD: 19.5%
  best response PR: 0%
[1]; part C (N = 41), treated population
  CBR: 31.7%
[1]; part C (N = 41), treated population, confirmed responses
  ORR: 0.0%
[1]; part C (n = 41)
  Median OS (95% CI): 508 days and 508 (239–NE) days
  Median PFS (95% CI): 114 (84–239) days
  OS range: 33 to 508 days
  PFS range: 33 to 438 days
[1]; part C, one patient with refractory high-grade astrocytoma
  reduction in tumor size (minor response): 38%
[1]; part C, one patient with treatment-refractory high-grade astrocytoma, ongoing
  treatment duration: 2.5 years
[2]; from dog HNSTD
  HED: 2.1 mg base/kg
[2]; from rat STD10
  HED: 3.2 mg base/kg
[3]; 3 days on/11 days off
  alternative RP2D: 30 mg/day
[3]; 4 days on/24 days off
  recommended phase II dose (RP2D): 45 mg/day
OAT3
  inhibition of mediated transport: 53.6%
OATP1B3
  inhibition of mediated transport: 58.3%

Reference: paper PMC10011554, “BET inhibitor trotabresib in heavily pretreated patients with solid tumors and diffuse large B-cell lymphomas” (Nature Communications, 2023)
